Data on eleven compounds can be found in patent US9656994B2, “Substituted benzimidazoles as nociceptin receptor modulators” (The Scripps Research Institute, priority 2013, dated 2017).

Data set [1] addresses T1, MOP (Homo sapiens, UniProt P35372). Nature of the data set: cAMP biosensor assay, MOP agonist mode. Type of data set: cell-based.
For data set [2], the target named is T2, NOP (Homo sapiens, UniProt P41146). As to the kind of experiment: cAMP biosensor assay, NOP antagonist mode. It is filed as cell-based.
T2 sequence (P41146 whole entry): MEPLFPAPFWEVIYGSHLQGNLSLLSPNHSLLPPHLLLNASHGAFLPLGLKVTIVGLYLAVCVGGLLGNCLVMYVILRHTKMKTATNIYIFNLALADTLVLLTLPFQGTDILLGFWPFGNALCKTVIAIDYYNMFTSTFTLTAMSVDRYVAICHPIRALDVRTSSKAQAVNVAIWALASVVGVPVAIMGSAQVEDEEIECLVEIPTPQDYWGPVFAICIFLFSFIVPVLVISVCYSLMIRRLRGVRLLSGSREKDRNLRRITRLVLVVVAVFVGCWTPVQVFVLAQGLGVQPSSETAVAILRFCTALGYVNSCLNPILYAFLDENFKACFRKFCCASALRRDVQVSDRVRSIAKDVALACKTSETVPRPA
The target in data set [3] is T1, MOP. Nature of the data set: cAMP biosensor assay, MOP antagonist mode. Type of data set: cell-based.
In data set [4] the target is T2, NOP. Nature of the data set: cAMP biosensor assay, NOP agonist mode. Type of data set: cell-based.
Data set [5] relates to selected cytochrome P450 enzymes. Nature of the data set: affinity for selected cytochrome P450 enzymes.
The nature of data set [6]: blood-brain barrier penetration. The note with it: in vivo.
Setting [7] is: HEK293-CNG cells expressing NOP, antagonist mode with 5 nM nociceptin, read-out: NOP Antagonist IC50.
Where [8] appears, read: HEK293-CNG cells expressing NOP, agonist mode, 11 point concentration-response, read-out: NOP Agonist EC50.

Molecules are shown by their SMILES. Where two headings read alike, the source gives them in different places.

Usually EC50 stands for the midpoint of the concentration-response curve. Broadly, the IC50 is the midpoint of a concentration-inhibition curve.

T1 sequence (P35372 whole entry): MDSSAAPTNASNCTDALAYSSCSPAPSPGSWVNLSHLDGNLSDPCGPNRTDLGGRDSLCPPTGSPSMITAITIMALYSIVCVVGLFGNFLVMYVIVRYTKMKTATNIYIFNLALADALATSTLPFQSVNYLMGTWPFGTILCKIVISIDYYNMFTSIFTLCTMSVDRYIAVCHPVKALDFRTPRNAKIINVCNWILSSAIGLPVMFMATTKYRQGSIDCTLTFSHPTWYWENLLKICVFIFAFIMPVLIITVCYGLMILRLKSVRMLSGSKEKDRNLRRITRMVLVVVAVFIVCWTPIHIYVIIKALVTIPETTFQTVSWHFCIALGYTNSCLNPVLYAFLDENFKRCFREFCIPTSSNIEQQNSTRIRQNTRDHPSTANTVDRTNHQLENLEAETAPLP

For `c1ccc2c(c1)nc(C1CCNCC1)n2C1CCN(CC2CCCCCCC2)CC1` [Cpd 10], the EC50 worked out at 0.4 µM at MOP [1] and 3.5 µM at NOP [4] (setting [8]). Besides, the IC50 on NOP [2] (setting [7]) and at MOP [3] was more than 10 µM each time.
For `c1ccc2c(c1)nc([C@@H]1CCNC1)n2C1CCN(CC2CCCCCCC2)CC1` [Cpd 11], in data set [5], the “affinity for selected cytochrome P450 enzymes” value is “low affinity”. In data set [6], the blood-brain barrier penetration amounted to 44%.
In the case of `O[C@H]1CN[C@H](c2nc3ccccc3n2C2CCN(CC3CCCCCCC3)CC2)C1` [Cpd 18], the results for the EC50 at MOP [1] and at NOP [4] were 0.57 µM and 1.4 µM, respectively. This compound also came in with an IC50 against NOP [2] of 7.8 µM.
For `Fc1ccc2c(c1)nc([C@@H]1CCCNC1)n2C1CCN(CC2CCCCCCC2)CC1` [Cpd 30], the EC50 at MOP [1] was determined as 0.23 µM; at NOP [4] (setting [8]), 0.15 µM. The IC50 on NOP [2] (setting [7]) was found to be 3.9 µM; on MOP [3] it was 3 µM.
Turning to `Cc1ccc2c(c1)nc([C@@H]1CCNC1)n2C1CCN(CC2CCCCCCC2)CC1` [Cpd 41], the EC50 at MOP [1] worked out at 5.9 µM; at NOP [4] (setting [8]), 6.3 µM. For the same compound, the results for the IC50 at NOP [2] (setting [7]) and on MOP [3] were more than 10 µM and more than 100 µM, respectively.
On to `CS(=O)(=O)c1ccc2c(c1)nc([C@@H]1CCNC1)n2C1CCN(CC2CCCCCCC2)CC1` [Cpd 44], for which the IC50 at NOP [2] (setting [7]) and against MOP [3] was more than 10 µM each time. Besides, the EC50 at NOP [4] (setting [8]) was 3.3 µM.
As to `C1=CC2CC1CC2CN1CCC(n2c(C3CNC3)nc3ccccc32)CC1` (stereo not shown) [Cpd 47], the results for the EC50 on MOP [1] and at NOP [4] (setting [8]) were 0.3 µM and 0.31 µM, respectively. The IC50 on NOP [2] (setting [7]) and at MOP [3] was more than 10 µM throughout.
In the case of `CC1=C(CN2CCC(n3c(C4CNC4)nc4cc(F)ccc43)CC2)C(C)(C)CCC1` [Cpd 53], the IC50 on NOP [2] (setting [7]) and against MOP [3] was more than 10 µM in each case. Also, at NOP [4] (setting [8]), the EC50 was determined as 0.21 µM.
For `c1ccc2c(c1)nc(C1CNC1)n2C1CCN(CC2CCCCC2)CC1` [Cpd 55], the IC50 on NOP [2] (setting [7]) and against MOP [3] was more than 10 µM throughout. In addition, on NOP [4] (setting [8]), the EC50 stood at 0.14 µM.
For the compound `CC1(C)[C@H]2CC=C(CN3CCC(n4c([C@@H]5CCCNC5)nc5ccccc54)CC3)[C@@H]1C2` [Cpd 58], the IC50 on NOP [2] (setting [7]) and on MOP [3] was more than 10 µM throughout. In addition, the EC50 at NOP [4] (setting [8]) is 1.6 µM.
As for `c1ccc(CN2CCC(n3c([C@@H]4CCNC4)nc4ccccc43)CC2)cc1` [Cpd 59], the EC50 on MOP [1] turned out to be 0.27 µM; at NOP [4] (setting [8]), 0.37 µM. The IC50 at NOP [2] (setting [7]) and at MOP [3] was more than 10 µM in each case.
